Measured values published in patent publication EP0105584B1, “Perfluorocarbon emulsions and their preparation and use in therapy” (ADAMANTECH, INC., priority 1982, dated 1984).
Marks after values point to notes of the source that are not given here.

Legend:
[1] = system: LAN-1 human neuroblastoma spheroid system; assay: In vitro chemosensitization with Adriamycin, spheroids; type: cell-based; details: in the presence of PFC Dispersion B
Experimental: (§1) In the course of in vitro chemosensitization studies in the LAN-1 human neuroblastoma spheroid system, conducted substantially as described in Example 4 above except for Adriamycin as the chemotherapeutic agent, it was noted that the anti-tumor activity of the Adriamycin was inhibited by the PFC material (PFC Dispersion B). […] This was tested by dissolving in water a radio-labelled analogue of Adriamycin, C^14-Daunomycin, adding Dispersion B (or in separate experiments, the neat PFC component of Dispersion B), blending for 30 minutes, separating the PFC phase from the aqueous phase, and determining the distribution of drug between the phases. Table VIII below reports the results of the experiment and similar experiments with three other drugs. It will be noted that the more lipophilic Duanomycin preferentially partitioned into the PFC phase whereas the other, less lipophilic, drugs favored the aqueous phase. It was concluded that although the PFC may have an inhibitory effect on less lipophilic drugs, the delivery of lipophilic drugs will be enhanced by the PFC.

[2] = Distribution of drug between PFC phase and aqueous phase of Dispersion B; type: physicochemical; details: for Drug in emulsion÷ drug in aqueous phase: Dispersion B, blending for 30 minutes
Experimental: as §1
The partitioning of the Vincristine between the PFC and aqueous phases of Dispersion B was first studied in comparison with Daunomycin, as reported in Table IX below, where "PFC" means the PFC phase of Dispersion B.

[3] = Octanol:water partition coefficient
MCa-11 mammary carcinoma [4] = assay: In vivo chemosensitization with cyclophosphamide; parameters: species or system BALB/c mice; details: cyclophosphamide 75 mg/kg i.p. single dose
Experimental: The combined use of PFC dispersion (Dispersion B) and high oxygen breathing for enhancement of the anti-tumor effects of cyclophosphamide ("CYC") was investigated with respect to treatment of MCa-11 mammary carcinoma transplanted into the right hind leg of female BALB/c mice. The tumors were allowed to grow to 2 mm at which point the animals were treated as described in Table VII below, wherein the cyclophosphamide, obtained commercially, was dissolved in distilled water and injected in a volume equal to […] of body weight. Three to six animals per treatment group were used in the study. On the day of treatment and three to five times per week thereafter, the tumors were sized with vernier calipers.

MCa-11 mammary carcinoma [5] = assay: In vivo chemosensitization with Vincristine; parameters: species or system BALB/c mice; details: Vincristine 1.5 mg/kg i.p. single dose, or 20 ml/kg Dispersion B i.v. with carbogen breathing, each alone
Experimental: The MCa-11 mammary carcinoma was transplanted into the thigh of BALB/c mice and grown to a diameter of 6 mm, at which time the mice were treated. Control mice received an injection of saline, while Vincristine treatment consisted of a single dose of 1.5 mg/kg of Vincristine administered intraperitoneally. PFC treatment consisted of an i.v. injection of 20 ml/kg of Dispersion B, followed by two hours of breathing carbogen (95% 02/5% C02), and injection of saline of Vincristine as before, followed by another two hours of carbogen breathing.

[6] = system: NB-100 neuroblastoma multicellular tumor spheroids; assay: In vitro chemosensitization with methotrexate, MTS; type: cell-based, human; details: 5 µM MTX for 24 hours
P388 leukemia = details: cited from earlier work
[7] = 1 hour, PFC phase of Dispersion B

COc1cccc2c1C(=O)c1c(O)c3c(c(O)c1C2=O)C[C@@](O)(C(=O)CO)C[C@@H]3O[C@H]1C[C@H](N)[C@H](O)[C@H](C)O1 [Adriamycin]
anti-tumor activity [1]: inhibited

COCC(O)Cn1ccnc1[N+](=O)[O-] (stereo not drawn) [Misonidazole]
Drug in emulsion÷ drug in aqueous phase [2]: 0.04
logP [3]: -0.367

O=P1(N(CCCl)CCCl)NCCCO1 (stereo not drawn) [Cyclophosphamide, cyclophosphamide]
Days to grow 6 mm (MCa-11 mammary carcinoma [4]; interpolated from the tumor growth curves): 17.8 days
Growth delay (MCa-11 mammary carcinoma [4]; relative to untreated controls): 5.3

COc1cccc2c1C(=O)c1c(O)c3c(c(O)c1C2=O)C[C@@](O)(C(C)=O)C[C@@H]3O[C@H]1C[C@H](N)[C@H](O)[C@H](C)O1 [Daunomycin]
PFC/H2O (ratio of concentrations in the emulsion and the aqueous phases) [2, 7]: 1.23
PFC/H2O (ratio of concentrations in the emulsion and the aqueous phases) ([2]; 3 hours, PFC phase of Dispersion B): 3.80
Drug in emulsion÷ drug in aqueous phase [2]: 3.77
logP [3]: -0.102

NCCCNCCSP(=O)(O)O [WR-2721, S - 2 - (3 - aminopropylamino) ethylphosphorothioic acid]
Drug in emulsion÷ drug in aqueous phase [2]: 0.05
logP [3]: -2.7

CC[C@]1(O)C[C@H]2CN(CCc3c([nH]c4ccccc34)[C@@](C(=O)OC)(c3cc4c(cc3OC)N(C=O)[C@H]3[C@@](O)(C(=O)OC)[C@H](OC(C)=O)[C@]5(CC)C=CCN6CC[C@]43[C@@H]65)C2)C1 [Vincristine]
effect on tumor growth (MCa-11 mammary carcinoma [5]): no effect on tumor growth
PFC/H2O (ratio of concentrations in the emulsion and the aqueous phases) [2, 7]: 2.69
PFC/H2O (ratio of concentrations in the emulsion and the aqueous phases) ([2]; 3 hours, determined via bioassay in the LAN-1 neuroblastoma spheroid system): 9.10^c
logP [3]: 2.83

CN(Cc1cnc2nc(N)nc(N)c2n1)c1ccc(C(=O)N[C@@H](CCC(=O)O)C(=O)O)cc1 [MTX, methotrexate]
Drug in emulsion÷ drug in aqueous phase [2]: 0.07
Lipophilicity index (partition coefficient of the drug between octanol and water): 0.014
D8, number of days required for the MTS to grow 8 units or 200 µm beyond their original diameter [6]: 9.52 days
MTS sizes ([6]; Day 0, 1 unit=25 µm): 9.83±0.17 microscope units
MTS sizes ([6]; Day 1): 9.74 microscope units
MTS sizes ([6]; Day 4): 10.69 microscope units
MTS sizes ([6]; Day 6): 11.76 microscope units
MTS sizes ([6]; Day 8): 13.93 microscope units
MTS sizes ([6]; Day 12): 18.93 microscope units
MTS sizes ([6]; Day 15): 21.83 microscope units

FC(F)(F)C(F)(F)C(F)(F)C(F)(F)C(F)(F)C(F)(F)C(F)(F)C(F)(F)Br [perfluorooctyl bromide]
local toxicity (P388 leukemia; mouse, in vivo): local toxic reactions in the peritoneal cavity were observed
improvement in therapy (survival time) (P388 leukemia; oxygen-saturated neat compound injected 24 hours before graded doses of whole body X-rays, versus salt solution): failed to show a significant improvement in therapy
